Source: US12077503B2, “Substituted cyclic amides and their use as herbicides” (FMC CORPORATION, priority 2015, dated 2024)

Legend:
Assay type in all cases: in vivo
[1] = test system: ivy-leaved morning glory (Ipomoea hederacea); assay: Test G Pre-Emergence Protocol; details: Ipomoea, pre-emergence, 312 h, evaluated after 13 days; for pest or weed control at 15.625 g/ha: 15.625 g ai/ha; for pest or weed control at 15.625 g/ha / pest or weed control at 250 g/ha: read-out: Morningglory, Ivy-leaved damage rating (100=total damage to plant; 0=no damage to plant); for pest or weed control at 62.5 g/ha: 62.5 g ai/ha, 100=total damage to plant, 0=no damage to plant, read-out: Morningglory, Ivy-leaved damage rating; for pest or weed control at 250 g/ha: 250 g ai/ha
In short: (§1)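 Under a 24/16° C day/night regime with 14 h light and 65% humidity, sown pots were sprayed after one day with compound (15.625, 62.5 or 250 g/ha; 50:50 acetone/water, 0.5% Tween 20). Damage was assessed visually 13 days later, 0 to 100.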

[2] = test system: redroot pigweed (Amaranthus retroflexus); assay: Test G Pre-Emergence Protocol; details: Amaranthus retroflexus, pre-emergence, 312 h, evaluated after 13 days; for pest or weed control at 15.625 g/ha: 15.625 g ai/ha; for pest or weed control at 15.625 g/ha / pest or weed control at 250 g/ha: read-out: Pigweed, Redroot damage rating (100=total damage to plant; 0=no damage to plant); for pest or weed control at 62.5 g/ha: 62.5 g ai/ha, 100=total damage to plant, 0=no damage to plant, read-out: Pigweed, Redroot damage rating; for pest or weed control at 250 g/ha: 250 g ai/ha
In short: as §1

[3] = test system: velvetleaf (Abutilon theophrasti); assay: Test G Pre-Emergence Protocol; details: Abutilon theophrasti, pre-emergence, 312 h, evaluated after 13 days; for pest or weed control at 15.625 g/ha: 15.625 g ai/ha; for pest or weed control at 15.625 g/ha / pest or weed control at 250 g/ha: read-out: Velvetleaf damage rating (100=total damage to plant; 0=no damage to plant); for pest or weed control at 62.5 g/ha: 62.5 g ai/ha, 100=total damage to plant, 0=no damage to plant, read-out: Velvetleaf damage rating; for pest or weed control at 250 g/ha: 250 g ai/ha
In short: as §1

[4] = test system: giant foxtail (Setaria faberi); assay: Test G Pre-Emergence Protocol; details: Setaria faberi, pre-emergence, 312 h, evaluated after 13 days; for pest or weed control at 15.625 g/ha: 15.625 g ai/ha; for pest or weed control at 15.625 g/ha / pest or weed control at 250 g/ha: read-out: Foxtail, Giant damage rating (100=total damage to plant; 0=no damage to plant); for pest or weed control at 62.5 g/ha: 62.5 g ai/ha, 100=total damage to plant, 0=no damage to plant, read-out: Foxtail, Giant damage rating; for pest or weed control at 250 g/ha: 250 g ai/ha
In short: as §1

[5] = test system: barnyardgrass (Echinochloa crus-galli); assay: Test G Pre-Emergence Protocol; details: Echinochloa crus-galli, pre-emergence, 312 h, evaluated after 13 days; for pest or weed control at 15.625 g/ha: 15.625 g ai/ha; for pest or weed control at 15.625 g/ha / pest or weed control at 250 g/ha: read-out: Barnyardgrass damage rating (100=total damage to plant; 0=no damage to plant); for pest or weed control at 62.5 g/ha: 62.5 g ai/ha, 100=total damage to plant, 0=no damage to plant, read-out: Barnyardgrass damage rating; for pest or weed control at 250 g/ha: 250 g ai/ha
In short: as §1

[6] = test system: corn (Zea mays); assay: Test G Pre-Emergence Protocol; details: Zea mays, pre-emergence, 312 h, evaluated after 13 days; for plant injury at 15.625 g/ha: 15.625 g ai/ha; for plant injury at 15.625 g/ha / plant injury at 250 g/ha: read-out: Corn damage rating (100=total damage to plant; 0=no damage to plant); for plant injury at 62.5 g/ha: 62.5 g ai/ha, 100=total damage to plant, 0=no damage to plant, read-out: Corn damage rating; for plant injury at 250 g/ha: 250 g ai/ha
In short: as §1

[7] = test system: ivy-leaved morning glory (Ipomoea hederacea); assay: Test G Post-Emergence Protocol; details: Ipomoea, post-emergence, 312 h, read-out: Morningglory, Ivy-leaved damage rating; for pest or weed control at 15.625 g/ha: 15.625 g ai/ha, evaluated after 13 days (100=total damage to plant; 0=no damage to plant); for pest or weed control at 62.5 g/ha: 62.5 g ai/ha; for pest or weed control at 62.5 g/ha / pest or weed control at 250 g/ha: evaluated after 13 days, 100=total damage to plant, 0=no damage to plant; for pest or weed control at 250 g/ha: 250 g ai/ha
In short: (§2)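 Damage was rated 13 days after treatment from 0 (none) to 100 (plant killed). Compound was applied as a spray at 15.625, 62.5 or 250 g/ha in 50:50 acetone/water containing 0.5% Tween 20, onto 8-day-old potted plants kept in a glasshouse (24/16 °C, 14 h light, 65% humidity).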

[8] = test system: redroot pigweed (Amaranthus retroflexus); assay: Test G Post-Emergence Protocol; details: Amaranthus retroflexus, post-emergence, 312 h, read-out: Pigweed, Redroot damage rating; for pest or weed control at 15.625 g/ha: 15.625 g ai/ha, evaluated after 13 days (100=total damage to plant; 0=no damage to plant); for pest or weed control at 62.5 g/ha: 62.5 g ai/ha; for pest or weed control at 62.5 g/ha / pest or weed control at 250 g/ha: evaluated after 13 days, 100=total damage to plant, 0=no damage to plant; for pest or weed control at 250 g/ha: 250 g ai/ha
In short: as §2

[9] = test system: velvetleaf (Abutilon theophrasti); assay: Test G Post-Emergence Protocol; details: Abutilon theophrasti, post-emergence, 312 h, read-out: Velvetleaf damage rating; for pest or weed control at 15.625 g/ha: 15.625 g ai/ha, evaluated after 13 days (100=total damage to plant; 0=no damage to plant); for pest or weed control at 62.5 g/ha: 62.5 g ai/ha; for pest or weed control at 62.5 g/ha / pest or weed control at 250 g/ha: evaluated after 13 days, 100=total damage to plant, 0=no damage to plant; for pest or weed control at 250 g/ha: 250 g ai/ha
In short: as §2

[10] = test system: giant foxtail (Setaria faberi); assay: Test G Post-Emergence Protocol; details: Setaria faberi, post-emergence, 312 h, read-out: Foxtail, Giant damage rating; for pest or weed control at 15.625 g/ha: 15.625 g ai/ha, evaluated after 13 days (100=total damage to plant; 0=no damage to plant); for pest or weed control at 62.5 g/ha: 62.5 g ai/ha; for pest or weed control at 62.5 g/ha / pest or weed control at 250 g/ha: evaluated after 13 days, 100=total damage to plant, 0=no damage to plant; for pest or weed control at 250 g/ha: 250 g ai/ha
In short: as §2

[11] = test system: barnyardgrass (Echinochloa crus-galli); assay: Test G Post-Emergence Protocol; details: Echinochloa crus-galli, post-emergence, 312 h, read-out: Barnyardgrass damage rating; for pest or weed control at 15.625 g/ha: 15.625 g ai/ha, evaluated after 13 days (100=total damage to plant; 0=no damage to plant); for pest or weed control at 62.5 g/ha: 62.5 g ai/ha; for pest or weed control at 62.5 g/ha / pest or weed control at 250 g/ha: evaluated after 13 days, 100=total damage to plant, 0=no damage to plant; for pest or weed control at 250 g/ha: 250 g ai/ha
In short: as §2

[12] = test system: corn (Zea mays); assay: Test G Post-Emergence Protocol; details: Zea mays, post-emergence, 312 h, read-out: Corn damage rating; for plant injury at 15.625 g/ha: 15.625 g ai/ha, evaluated after 13 days (100=total damage to plant; 0=no damage to plant); for plant injury at 62.5 g/ha: 62.5 g ai/ha; for plant injury at 62.5 g/ha / plant injury at 250 g/ha: evaluated after 13 days, 100=total damage to plant, 0=no damage to plant; for plant injury at 250 g/ha: 250 g ai/ha
In short: as §2

SMILES	pest or weed control at 15.625 g/ha [1] [%]	pest or weed control at 62.5 g/ha [1] [%]	pest or weed control at 250 g/ha [1] [%]	pest or weed control at 15.625 g/ha [2] [%]	pest or weed control at 62.5 g/ha [2] [%]	pest or weed control at 250 g/ha [2] [%]	pest or weed control at 15.625 g/ha [3] [%]	pest or weed control at 62.5 g/ha [3] [%]	pest or weed control at 250 g/ha [3] [%]	pest or weed control at 15.625 g/ha [4] [%]	pest or weed control at 62.5 g/ha [4] [%]	pest or weed control at 250 g/ha [4] [%]	pest or weed control at 15.625 g/ha [5] [%]	pest or weed control at 62.5 g/ha [5] [%]	pest or weed control at 250 g/ha [5] [%]	plant injury at 15.625 g/ha [6] [%]	plant injury at 62.5 g/ha [6] [%]	plant injury at 250 g/ha [6] [%]	pest or weed control at 15.625 g/ha [7] [%]	pest or weed control at 62.5 g/ha [7] [%]	further results
CN1C[C@H](c2cccc(C(F)(F)F)c2)[C@@H](C(=O)Nc2cnccc2[S+](C)[O-])C1=O (mixture of isomers) [Compound 1752]	0	0	0	0	0	0	0	0	0	0	0	20	0	0	20	0	0	0	0	0	pest or weed control at 250 g/ha [7]: 0%; pest or weed control at 15.625 g/ha [8]: 0%; pest or weed control at 62.5 g/ha [8]: 0%; pest or weed control at 250 g/ha [8]: 0%; pest or weed control at 15.625 g/ha [9]: 0%; pest or weed control at 62.5 g/ha [9]: 0%; pest or weed control at 250 g/ha [9]: 0%; pest or weed control at 15.625 g/ha [10]: 0%; pest or weed control at 62.5 g/ha [10]: 0%; pest or weed control at 250 g/ha [10]: 0%; pest or weed control at 15.625 g/ha [11]: 0%; pest or weed control at 62.5 g/ha [11]: 0%; pest or weed control at 250 g/ha [11]: 0%; plant injury at 15.625 g/ha [12]: 0%; plant injury at 62.5 g/ha [12]: 0%; plant injury at 250 g/ha [12]: 0%
CN1C[C@H](c2ccc(C(F)(F)F)cc2)[C@@H](C(=O)Nc2cccnc2[S+](C)[O-])C1=O (mixture of isomers) [Compound 1788]	0	0	0	0	0	0	0	0	0	0	0	0	0	0	20	0	0	0	0	0	pest or weed control at 250 g/ha [7]: 40%; pest or weed control at 15.625 g/ha [8]: 0%; pest or weed control at 62.5 g/ha [8]: 10%; pest or weed control at 250 g/ha [8]: 20%; pest or weed control at 15.625 g/ha [9]: 0%; pest or weed control at 62.5 g/ha [9]: 10%; pest or weed control at 250 g/ha [9]: 20%; pest or weed control at 15.625 g/ha [10]: 0%; pest or weed control at 62.5 g/ha [10]: 0%; pest or weed control at 250 g/ha [10]: 0%; pest or weed control at 15.625 g/ha [11]: 0%; pest or weed control at 62.5 g/ha [11]: 0%; pest or weed control at 250 g/ha [11]: 0%; plant injury at 15.625 g/ha [12]: 0%; plant injury at 62.5 g/ha [12]: 10%; plant injury at 250 g/ha [12]: 10%
